# Source: ChEMBL document CHEMBL5260825, “Chemical Constituents of Bryophytes: Structures and Biological Activity” (J Nat Prod, 2018)
# Values joined by “and” are separate entries in the source; they are usually repeats but may differ in a detail not shown here. Equal entries are not always repeated.
# Tests used:
# [1] = molecular target: Procathepsin L (Homo sapiens) (UniProt P07711); experiment: Inhibition of Cathepsin L (unknown origin) at 0.00001 M relative to control; details: dose 10 µM
# [2] = Inhibition of superoxide anion radical release in rabbit polymorphonuclear leucocytes; assay type: functional, cell-based; details: Oryctolagus cuniculus, Polymorphonuclear neutrophil
# [3] = tested on: Peritoneal macrophage cell; experiment: Inhibition of superoxide anion radical release in guinea pig peritoneal macrophages; assay type: functional, cell-based; details: Cavia porcellus
# [4] = molecular target: Cathepsin B (Homo sapiens) (UniProt P07858); experiment: Inhibition of Cathepsin B (unknown origin) at 0.00001 M relative to control; details: dose 10 µM
# [5] = tested on: Trypanosoma brucei brucei; experiment: […] activity against Trypanosoma brucei brucei GUTat 3.1 assessed as inhibition of parasite growth measured after 72 hrs by alamar blue assay; assay type: functional, organism-based; details: GUTat 3.1, time 72 hrs, read-out: ED50 (the source's name)
# DNA polymerase beta = DNA polymerase beta (Homo sapiens, UniProt P06746); experiment: Inhibition of DNA polymerase beta (unknown origin)
# [6] = tested on: Human immunodeficiency virus 1; experiment: Antiviral activity against HIV-1; assay type: functional, organism-based
# [7] = molecular target: T1, Polyunsaturated fatty acid 5-lipoxygenase (Homo sapiens) (UniProt P09917); experiment: Inhibition of ALOX5 (unknown origin) at 0.000001 M relative to control; details: dose 1 µM
# T1 sequence (whole entry): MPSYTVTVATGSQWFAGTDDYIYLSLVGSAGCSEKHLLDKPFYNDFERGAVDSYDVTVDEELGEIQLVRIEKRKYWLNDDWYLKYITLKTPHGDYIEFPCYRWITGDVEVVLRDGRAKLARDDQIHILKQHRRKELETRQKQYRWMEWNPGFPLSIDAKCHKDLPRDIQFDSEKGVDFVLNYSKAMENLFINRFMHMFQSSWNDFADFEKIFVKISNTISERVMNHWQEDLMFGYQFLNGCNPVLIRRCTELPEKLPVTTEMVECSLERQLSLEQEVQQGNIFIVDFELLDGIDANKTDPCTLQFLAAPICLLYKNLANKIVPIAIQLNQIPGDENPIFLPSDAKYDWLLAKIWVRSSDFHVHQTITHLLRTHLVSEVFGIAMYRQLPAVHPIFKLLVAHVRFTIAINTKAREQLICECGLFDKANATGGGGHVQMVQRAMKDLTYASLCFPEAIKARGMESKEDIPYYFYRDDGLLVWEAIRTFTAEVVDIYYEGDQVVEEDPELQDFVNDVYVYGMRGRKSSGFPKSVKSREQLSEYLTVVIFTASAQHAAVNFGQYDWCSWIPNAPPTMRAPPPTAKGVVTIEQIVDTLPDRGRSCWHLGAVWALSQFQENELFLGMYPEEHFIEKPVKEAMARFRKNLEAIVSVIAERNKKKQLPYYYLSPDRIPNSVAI
# [8] = tested on: Trichophyton mentagrophytes; experiment: Antifungal activity against Trichophyton mentagrophytes assessed as inhibition of microbial growth; assay type: functional
# Candida albicans [9] = experiment: Antifungal activity against Candida albicans assessed as inhibition of fungal growth by MTT assay; assay type: functional
# Bacillus subtilis = experiment: Antibacterial activity against Bacillus subtilis assessed as inhibition of bacterial growth; assay type: functional
# Cladosporium cucumerinum [10] = experiment: Antifungal activity against Cladosporium cucumerinum assessed as inhibition of microbial growth by bioautographic TLC method; assay type: functional
# [11] = Cytotoxicity against mouse 3T3 cells assessed as reduction in cell viability; assay type: toxicity, cell-based; details: NIH3T3 cells
# K562 = experiment: Antiproliferative activity against human K562 cells assessed as cell growth inhibition; assay type: functional
# MCF7 = experiment: Antiproliferative activity against human MCF7 cells assessed as cell growth inhibition; assay type: functional, cell-based
# DU-145 = experiment: Antiproliferative activity against human DU-145 cells assessed as cell growth inhibition; assay type: functional
# M14 = experiment: Antiproliferative activity against human M14 cells assessed as cell growth inhibition; assay type: functional
# HT-29 = experiment: Antiproliferative activity against human HT-29 cells assessed as cell growth inhibition; assay type: functional, cell-based
# Candida albicans [12] = experiment: Antifungal activity against Candida albicans assessed as inhibition of fungal growth by bioautographic TLC method; assay type: functional
# [13] = tested on: Trypanosoma brucei brucei; experiment: Antitrypanosomal activity against bloodstream Trypanosoma brucei brucei assessed as parasite growth inhibition measured after 72 hrs by alamar blue assay; assay type: functional, organism-based
# Cyclooxygenase = Cyclooxygenase (Homo sapiens, UniProt P35354+P23219); experiment: Inhibition of COX (unknown origin); assay type: protein assay
# [14] = molecular target: T1, Polyunsaturated fatty acid 5-lipoxygenase (Homo sapiens); experiment: Inhibition of ALOX5 (unknown origin) assessed as reduction in calmodulin level
# [15] = Toxicity in brine shrimp assessed as lethality; details: artemia salina
# HepG2 = experiment: Antiproliferative activity against human HepG2 cells assessed as cell growth inhibition; assay type: functional, cell-based
# Homo sapiens = organism: Homo sapiens; experiment: Antagonist activity at vasopressin (unknown origin); details: filed as antagonist
# Botrytis cinerea = experiment: Antifungal activity against Botrytis cinerea assessed as inhibition of microbial growth by microtiter plate based analysis; assay type: functional, organism-based
# Zymoseptoria tritici = experiment: Antifungal activity against Zymoseptoria tritici assessed as inhibition of microbial growth by microtiter plate based analysis; assay type: functional, organism-based
# Pyricularia oryzae [16] = experiment: Antifungal activity against Pyricularia oryzae assessed as inhibition of microbial growth by microtiter plate based analysis; assay type: functional, organism-based
# [17] = molecular target: Calmodulin-1 (Homo sapiens) (UniProt P0DP23); experiment: Inhibition of calmodulin (unknown origin)
# Pyricularia oryzae [18] = experiment: Antifungal activity against Pyricularia oryzae assessed as inhibition of microbial growth; assay type: functional, organism-based
# Cladosporium cucumerinum [19] = experiment: Antifungal activity against Cladosporium cucumerinum assessed as inhibition of microbial growth by microtiter plate based analysis; assay type: functional, organism-based
# Phytophthora infestans = experiment: Antifungal activity against Phytophthora infestans assessed as inhibition of microbial growth by microtiter plate based analysis; assay type: functional, organism-based
# KB = experiment: Antiproliferative activity against human KB cells assessed as cell growth inhibition; assay type: functional, cell-based
# U-251 = experiment: Antiproliferative activity against human U-251MG cells assessed as cell growth inhibition; assay type: functional; details: read-out: ED50 (the source's name)
# RPMI-7951 = experiment: Antiproliferative activity against human RPMI-7951 cells assessed as cell growth inhibition; assay type: functional; details: read-out: ED50 (the source's name)
# [20] = Antiplatelet activity against collagen-induced rabbit platelet assessed as inhibition of platelet aggregation at 100 ug/ml relative to control; assay type: functional; details: Oryctolagus cuniculus
# [21] = Antiplatelet activity against arachidonate-induced rabbit platelet assessed as inhibition of platelet aggregation at 100 ug/ml relative to control; assay type: functional; details: Oryctolagus cuniculus
# Candida albicans [22] = experiment: Antifungal activity against Candida albicans assessed as inhibition of fungal growth by MTT method; assay type: functional
# [23] = tested on: Panel NCI-60 (60 carcinoma cell lines); experiment: Antiproliferative activity against human Panel NCI-60 (60 carcinoma cell lines) assessed as cell growth inhibition; assay type: functional
# P388 = experiment: Antiproliferative activity against mouse P388 cells assessed as cell growth inhibition; assay type: functional, cell-based
# Chain of Procathepsin L (Homo sapiens) (P07711 114-333 limits assumed): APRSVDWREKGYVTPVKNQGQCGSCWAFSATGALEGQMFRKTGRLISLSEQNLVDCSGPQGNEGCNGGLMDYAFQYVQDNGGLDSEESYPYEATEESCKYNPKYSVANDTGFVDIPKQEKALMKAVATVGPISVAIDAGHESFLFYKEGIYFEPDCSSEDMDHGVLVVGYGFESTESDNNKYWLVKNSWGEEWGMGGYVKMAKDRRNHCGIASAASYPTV
smiles,measurement,setting,value
C=CC(=C)CC[C@]1(C)[C@H]2CCC=C(C)[C@]2(C)CC[C@H]1C(=O)O,inhibition,[1],63%
same,IC50,[2],0.07 µg/mL
same,IC50,[3],25 µg/mL
same,inhibition,[4],32%
Cc1ccc(C(=O)Nc2ccc(S(=O)(=O)O)c3cc(S(=O)(=O)O)cc(S(=O)(=O)O)c23)cc1NC(=O)c1cccc(NC(=O)Nc2cccc(C(=O)Nc3cc(C(=O)Nc4ccc(S(=O)(=O)O)c5cc(S(=O)(=O)O)cc(S(=O)(=O)O)c45)ccc3C)c2)c1 [SURAMIN],EC50,[5],1.5 µg/mL
Oc1cc2cc(c1O)Oc1ccc(cc1)CCc1cccc(O)c1Oc1cccc(c1)CC2O (stereo unspecified),IC50,DNA polymerase beta,14.4 µM
same,IC50,[6],5.3 µg/mL
same,inhibition,[7],4%
Oc1cc2ccc1Oc1cccc(c1)CCc1ccc(O)c(c1)Oc1ccc(cc1)CC2,MIC,[8],1 µg/mL
same,MID,Candida albicans [9],0.25 µg/mL
same,MIC,Bacillus subtilis,1.5 µg/mL
C=C1CC[C@H]2C(=C)CC[C@@H]3[C@H](OC(=O)[C@@H]3C)[C@@H]12,MIC,Cladosporium cucumerinum [10],3 µg/mL
CC(=O)O[C@H]1OC=C(CO)[C@@H]2[C@@H]3[C@H](CC[C@@]4(CO4)[C@H]12)C3(C)C,GI50,[11],3.8 µM
same,GI50,K562,8.7 µM
same,GI50,MCF7,9 µM
same,GI50,DU-145,4.8 µM
same,GI50,M14,6.4 µM
same,GI50,HT-29,6.1 µM
C=C1CC[C@H]2C(=C)CC[C@H]3C(=C)C(=O)O[C@@H]3[C@@H]12 [DEHYDROCOSTUSLACTONE],MIC,Candida albicans [12],5 µg/mL
same,MIC,Cladosporium cucumerinum [10],0.5 µg/mL
C=C(C)[C@H]1Cc2c(CCc3ccccc3)cc(O)c(O)c2O1,IC50,[13],0.44 µg/mL
same,IC50,Cyclooxygenase,26.2 µM
same,ID50,[14],2 µg/mL
CC(=O)N1CCN(c2ccc(OCC3COC(Cn4ccnc4)(c4ccc(Cl)cc4Cl)O3)cc2)CC1 (stereo unspecified) [KETOCONAZOLE],LC50,[15],14.9 ppm
CC1(C)[C@H]2C[C@H](OC(=O)/C=C/c3ccc(O)cc3)[C@]1(C)C[C@H]2O,IC50,HepG2,4.5 µg/mL
CC(C)=CCc1c(CCc2ccccc2)cc(O)c(O)c1O,ID50,Homo sapiens,27 µg/mL
same,ID50,[14],2 µg/mL
Oc1ccc2c(c1)CCc1ccc(O)c(c1)-c1cc(cc(Cl)c1O)/C=C(/Cl)c1ccc-2c(O)c1,IC50,Botrytis cinerea,7.6 µg/mL
same,IC50,Zymoseptoria tritici,15.9 µg/mL
same,IC50,Pyricularia oryzae [16],3.9 µg/mL
COc1ccc2c(c1)CCc1ccc(cc1)Oc1cc(ccc1O)CCc1ccc-2c(O)c1,ID50,[17],20 µg/mL
same,inhibition,[7],4%
Cc1cc2c(cc1O)[C@H](C)CC[C@@H]2C(C)C,IC50,Pyricularia oryzae [18],4.1 µg/mL
same,IC50,Botrytis cinerea,14.2 µg/mL
same,IC50,Zymoseptoria tritici,10 µg/mL
same,IC50,Cladosporium cucumerinum [19],11.8 µg/mL
same,IC50,Phytophthora infestans,0.9 µg/mL
Oc1cc2cc(c1O)Oc1ccc(cc1)CCc1ccc(O)c(O)c1Oc1cccc(c1)CC2 [MARCHANTIN B],MID,Candida albicans [9],4 µg/mL
same,IC50,DNA polymerase beta,14.4 µM
same,IC50,[6],5.3 µg/mL
same,IC50,Cyclooxygenase,55.9 µM
same,IC50,KB,3.2 µM
COc1cc(OC)c2c3c1C(=O)C[C@@H]1c4ccccc4O[C@@H](c4cccc(O)c4-2)[C@H]31,EC50,U-251,2 µg/mL
same,EC50,RPMI-7951,1 µg/mL
same,EC50,HT-29; read-out: ED50 (the source's name),1 µg/mL
C=C(C)[C@H]1CC=C2C(=O)O[C@H]3C=C(C)[C@H](OO)[C@@H]1[C@@H]23,inhibition at 100 µg/mL,[20],93%
same,inhibition at 100 µg/mL,[21],50%
Oc1ccc2c(c1)CCc1ccc(O)c(c1)-c1cc(cc(Cl)c1O)CCc1ccc-2c(O)c1,IC50,Botrytis cinerea,18.9 µg/mL
same,IC50,Zymoseptoria tritici,4.5 µg/mL
same,IC50,Pyricularia oryzae [16],2.6 µg/mL
CO[C@@H]1CC[C@]2(C)C3CCC4C(=CCC5C(C)(C)[C@H](O)CC[C@]45C)C[C@]3(C)CC[C@H]2C1(C)C (stereo partly specified),MIC,Candida albicans [22],2 µg/mL
Oc1ccc2cc1Oc1ccc(cc1)CCc1ccc(c(O)c1O)Oc1cccc(c1)CC2,MIC,[8],0.5 µg/mL
same,MID,Candida albicans [9],0.2 µg/mL
C=C1C(=O)C2=C[C@H]1CCC(=O)[C@]1(C)CCCC(C)(C)[C@H]1C[C@H]2O,GI50,[23],1.2 µM
same,GI50,P388,0.1 µg/mL and 300 nM
same,IC50,P388,0.06 µg/mL
